The text below walks through data of a melting point compilation (Tetko et al.; mined from patent text by program, amines drawn as free bases though some values may be those of a salt).

In the case of `Cc1[nH]c(=S)n(Nc2cccc(Cl)c2)c1C`, the melting point was 234 °C. `N#Cc1ccc(CC(=O)c2c(O)c3cccnc3n(-c3ccccc3)c2=O)cc1` returned a melting point of 227 to 230 °C. Take `CC(=O)c1nc2ccc(Cl)cc2cc1OCc1ccccc1`: the melting point was in the range of 107 to 110 °C. `CSc1[nH]ccc1[N+](=O)[O-]` yielded a melting point of 212 to 213 °C.

In turn, `Nc1nc2c(c(Nc3ccc(F)c(Cl)c3)n1)-c1ccccc1C2` came in with a melting point of 232 to 233 °C. `O=C(NC1CCN(Cc2ccccc2)C1)C12CC3CC(CC(C3)C1)C2` (stereo not given) had a melting point of 130 to 132 °C. `O=C(NCCO)c1cccc(-c2ccc3c(c2)N(Cc2cc(Cl)ccc2Cl)CC3)c1`: the melting point was 149 to 150 °C. The value for `COc1ccc2c(c1)CC(=O)c1cc(C(C)C(=O)O)ccc1S2` (stereo not given) was 152 to 153 °C. The result for `CCCCOC(=O)Cc1cc(O)c(C)cc1O` reads 113 °C. The value for `Cc1cncnc1Nc1ccc(C(=O)CC2CCN(Cc3ccccc3)CC2)cc1` was 211 to 213 °C. The compound `CC(C)CCc1c(-c2ccc(S(C)(=O)=O)c(F)c2)cnn(-c2ccc(F)c(Cl)c2)c1=O` registered a melting point of 102 to 104 °C. `CC(=O)OCC[Si](c1ccccc1)(c1ccccc1)c1ccccc1` returned a melting point of 67 to 68 °C. In the case of `CCOC(=O)OC1=C(c2ccccc2)C(CCC(=O)O)OC1=O` (stereo not given), the melting point lay within 139 to 141 °C. `COc1ccc2c(C(C)C(=O)OCCNC(=O)c3cccnc3)cccc2c1` (single isomer, unassigned; (+)) gave a melting point of 79 to 82 °C. The compound `COc1ccc2c(c1)C(O)(CC#N)C(C)(C)CC2` (stereo not given) had a melting point of 107 to 108 °C. Take `CCCCCC1CCC(c2ccc(-c3ccc(Br)cc3C(F)(F)F)cc2)CC1` (stereo not given): the melting point lay within 51 to 52 °C. The value for `Cc1nc2ccccc2n1C1CCNCC1` was 130 to 132 °C. As to `O=C(NC1(C(=O)Nc2nncs2)CCCC1)OCc1ccccc1`, the melting point lay within 229 to 233 °C. Turning to `CCCCN(Sc1nc2ccccc2s1)C(C)(C)C`, the melting point lay within 55 to 56 °C. The compound `O=CNc1ccccc1F` came in with a melting point of 47 to 48 °C. For the compound `O=C1CC2(C(=O)N1)C(=O)N1c3ccccc3Sc3cccc2c31` (stereo not given), the melting point was above 300 °C. `O=c1oc(-c2cccc(-c3ccccc3)c2)cc(O)c1Sc1ccccc1CC1CC1` came in with a melting point of 88 °C. In turn, `CC(C)N1C(=O)NC2(CCN(C(=O)OC(C)(C)C)CC2)C1=O` registered a melting point of 206 to 208 °C. `C=CCNc1nc(NCC(=C)C)c2scc(C)c2n1` showed a melting point of 83 °C. The compound `CCCn1c(=O)[nH]c2ccc(C(=O)c3nc(Br)c4ccccn34)cc2c1=O` came in with a melting point of 322 °C. For the compound `Cn1nc(Br)c2c(=O)n3c(nc21)SCC3`, the melting point lay in the range of 205 to 206 °C. Turning to `Cc1cc(C)cc(Sc2cccc([N+](=O)[O-])c2C#N)c1`, the melting point was in the range of 155 to 156 °C.

`CC(C)(C)C(=O)Nc1ccc(Br)cc1-c1ccnc(C(F)(F)F)n1` returned a melting point of 153 to 157 °C. The result for `O=C1CC[C@@H](c2ccccc2)[C@H](c2ccccc2)N1` (relative stereo) reads 160 to 164 °C.

Regarding `Cc1cc(SC(=O)N(C)C)c(C(C)(C)C)cc1C=O`, the melting point was in the range of 107 to 108 °C. `S=C1Nc2ccc(Cl)cc2CS1`: the melting point fell in the range of 217 to 222 °C. Take `Cc1c(C(=O)Nc2ccc(N3CCC(N4CCOCC4)CC3)cc2C#N)cnn1-c1ccc(C(F)(F)F)cc1`: the melting point fell in the range of 210 to 212 °C. The compound `CCOC(=O)CCCc1ccc(N[C@@H](CCC(N)=O)C(=O)O)cc1` came in with a melting point of 179 to 180 °C.

For the compound `COC(=O)/C=C(C)/C=C/C(F)=C(C)/C=C/C1(C)C=C(C)OC1C` (stereo not given), the melting point lay in the range of 122 to 126 °C. `OC1CSC(Oc2cccnc2-c2ccoc2)C(O)C1O` (stereo not given) displayed a melting point of 128 °C. Compound `CC(C)(C)S(=O)(=O)CC(Cc1ccccc1)C(=O)O` (stereo not given) had a melting point of 147 to 148 °C. `COc1cc2c(cc1OC)[C@@H]1CN(C)CC[C@@H]1N=C2c1ccc(C)c(C)c1` (relative stereo) registered a melting point of 182 to 184 °C. For `Cc1c(O)c(=O)ccn1C(C)C`, the melting point is 239 to 242 °C. `CN1CCN(C2NC(=O)c3ccccc32)CC1` (stereo not given) returned a melting point of 168 to 170 °C. The result for `CC(C)(C)OC(=O)NCCCCn1c(-c2ccccc2)cc2ccc(C(=O)c3cc(CC(=O)O)c(-c4ccccc4)s3)cc21` reads 167 to 169 °C; that for `CC(C)Nc1cncc(C#N)c1`, 82 °C; that for `O=C(Nc1cccc([N+](=O)[O-])c1)C1=C(Nc2ccccc2)COC1=O`, 194 to 195 °C. The compound `CC(C)Sc1nc(OS(C)(=O)=O)cs1` came in with a melting point of 83 to 85 °C. Turning to `COc1ccc(N(Cc2cnn(Cc3ccc(F)cc3)c2)C(=O)C2CCCc3c(O)cccc32)cc1` (stereo not given), the melting point was in the range of 143 to 146 °C. On to `N#Cc1cnc2sc(-c3ccccc3)cc2c1Nc1cccc2[nH]ccc12`, for which the melting point was above 245 °C. `N#Cc1ccc2c(c1)NC(=O)CO2` yielded a melting point of 243 to 245 °C. The value for `CN(c1cccc2cc(C(=O)NCC3(SCc4ccccc4)CCN(C(=O)OC(C)(C)C)CC3)[nH]c12)S(=O)(=O)c1cccs1` was 195 to 197 °C; that for `C=C(c1ccccc1)S(=O)(=O)c1ccc(C(C)(C)C)cc1` was 99 °C; that for `Cc1c(C)c2c(c(C)c1NC(=O)NCCCO)C(c1ccc(C(C)C)cc1)CO2` (stereo not given) was 185 to 186 °C. Take `C=C1N(c2ccc(Cl)cc2)C(=O)OC12CCN(CCC=C(c1ccc(F)cc1)c1ccc(F)cc1)CC2`: the melting point was 186 to 188 °C. The result for `CCCCCC(=O)NCc1nc(-c2ccc3c(c2)Nc2ccccc2S3)cs1` reads 192 to 194 °C; that for `COc1ccc2cc(CCCOCCCCCCNCC(O)c3cc(Cl)c(N)c(Cl)c3)ccc2c1` (stereo not given), 102 to 104 °C; that for `O=C1Nc2ccccc2Oc2cscc21`, 240 to 241 °C. In the case of `CCCCCCCCNc1nc(C=O)cs1`, the melting point was in the range of 60 to 62 °C. In the case of `CS(=O)(=O)c1nccc(-c2ccccc2)n1`, the melting point lay in the range of 136 to 137 °C. The compound `CS(=O)(=O)c1cccc(NC(=O)c2cnn3c(C(F)F)cc(-c4ccc(C(F)(F)F)cc4)nc23)c1` gave a melting point of 251 °C. With `COc1nc2ccccc2c(=O)n1O`, the melting point is 220 °C. In the case of `CN(Cc1ccc(NC(=O)C2=Cc3cc(-c4ccc(OCC(=O)OC(C)(C)C)cc4)ccc3S(=O)(=O)CC2)cc1)C1CCOCC1`, the melting point was 209 to 211 °C. Compound `CCCOc1c(C=NO)c(=O)n(C)c(=O)n1C` displayed a melting point of 119 to 120 °C.

With `CC(C)CC(NC(=O)OCc1ccccc1)C(=O)Nc1nncs1` (racemic), the melting point was 118 to 120 °C.

For the compound `CCOc1ccc(-c2nc(-c3cccc(CO)n3)cs2)cc1OCC`, the melting point was 109 to 113 °C. `CC(=O)c1ccc2c(c1)ncn2-c1cccc(C(=NOC(C)C)OC2CCCN(C)C2)c1` (stereo not given) yielded a melting point of 104 to 106 °C. As to `CC1=C(C(=O)OC(C)(C)C)C(c2cccc(F)c2F)C(C(=O)OC(C)(C)C)=C(C)N1`, the melting point lay within 192 to 194 °C. In turn, `C=C1N(c2cccc3ccccc23)C(=O)OC12CCN(Cc1ccccc1)CC2` registered a melting point of 130 to 131 °C. The result for `CC1Nc2ccc(-c3cccc(Cl)c3)cc2C(C)(C)O1` (stereo not given) reads 144 to 146 °C; that for `CCOC(=O)c1cnn(-c2ccccc2N)c1O`, 151 to 154 °C; that for `COc1ccc(-c2cc(=O)n(Cc3ccc(Cl)c(Cl)c3)nc2-c2ccc(OC)cc2)cc1`, 108 to 110 °C. The result for `N#Cc1ccc(Cn2c(=O)c(C#N)c(N3CCN(C(=O)c4cccs4)CC3)c3cccnc32)cc1` reads 241 °C; that for `Cc1cc2c(N=C3SCC4Cc5sccc5CN34)cccc2cn1` (racemic), 159 °C; that for `C#CCNc1c(-c2c(F)cc(F)cc2F)c(Cl)nc2ncnn12`, 141 °C. The result for `COC(=O)Cc1cccc(-c2nc(=O)c3ccccc3s2)n1` reads 180 °C; that for `CCN(CC)c1ccc(-c2cc(-c3ccc(C(=O)O)cc3)ccc2O)cc1C(C)(C)C`, 190 °C.

`Cc1cn(-c2cc(C(=O)O)cc(C(F)(F)F)c2)cn1` returned a melting point above 300 °C. Regarding `COC(=O)[C@H](CS)NC(=O)[C@H](CO)NC(=O)OC(C)(C)C`, the melting point is 72 to 74 °C.

The compound `N#Cc1ccc(-c2sc(N)c(C(=O)c3ccc(Cl)cc3)c2CN(C2CCCCC2)C2CCCCC2)cc1` returned a melting point of 196 to 200 °C. Consider `CC(=O)N[C@@H](Cc1c[nH]c2ccc(O)cc12)C(=O)O`, for which the melting point is 209 °C. On to `O=C1CCc2cc(NCC(=O)N3CCC(Oc4ccc(Cl)cc4)CC3)ccc2N1`, for which the melting point fell in the range of 248 to 251 °C. The result for `COc1ccc(C=C(C(C)=O)C(C)=O)cc1` reads 70 to 72 °C.

On to `O=C(CCNc1c(C(=O)O)[nH]c2cc(Cl)cc(Cl)c12)c1ccccc1Cc1ccccc1`, for which the melting point is 280 to 283 °C. Consider `CCOc1ccc(-c2ccc(C3COC(c4c(F)cccc4F)=N3)cc2)cn1` (stereo not given), for which the melting point was 119 °C. Compound `C=CCN(CC=C)c1ccc2[nH]c3cnc(-c4nc(CC)no4)nc3c2c1` returned a melting point of 175 to 184 °C.

In the case of `NS(=O)(=O)c1ccc(-c2cccn2-c2ccc(F)cc2)cc1`, the melting point was 160 to 161 °C. For the compound `Cn1nc([N+](=O)[O-])cc1CO`, the melting point was in the range of 66 to 68 °C. The value for `COc1cc2c(O)c3c(c(-c4ccc5c(c4)OCO5)c2cc1OC)C(=O)OC3` was 280 to 282 °C; that for `c1ccc(COc2ccc(-c3ccc(OCc4ccccc4)cc3)cc2)cc1` was 222 to 224 °C; that for `Cc1nc(N2CCc3ccccc3CC2)c(C#N)c(=O)n1OCC(F)(F)F` was above 200 °C. Regarding `COC1C=C(C)C(=O)CC(C)(C)C1OC(=O)Cc1csc(N)n1` (stereo not given), the melting point is 116 to 117 °C. As for `CC(c1ccc(C=Cc2ccccc2)o1)N(O)C(N)=O` (stereo not given), the melting point was 140 °C. The compound `CC(=O)Nc1ccc(C(=O)O)cc1OC(C)=O` gave a melting point of 219 to 221 °C. In turn, `CCOC(=O)OCC1(C)COC(=O)OC1` returned a melting point of 68 to 69 °C.
